This note sets out measurements from PubChem BioAssay (NCI).

Each structure is given as a SMILES string.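 Briefly, cells in 96-well plates were exposed to five compound concentrations for 48 h, and endpoints were estimated by linear interpolation. GI50 = concentration required for 50% inhibition of growth. The concentration for full growth arrest is given as TGI.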 Bounds are passed on as bounds.

Test systems include K-562 leukemia; NCI/ADR-RES ovarian; KM12 colon; OVCAR-3 ovarian; CCRF-CEM leukemia; SF-295 CNS; OVCAR-4 ovarian; HL-60(TB) leukemia; NCI-H23 lung; SK-MEL-2 melanoma; HT29 colon; SF-268 CNS; HCT-116 colon; SF-539 CNS; UO-31 renal.
Common to all, as to assay: NCI anticancer screen, dose series, 48 h

In the case of `Cc1cccc(NC(=O)O/N=C(\Cl)C(C)C)c1`, the TGI in the assay with K-562 leukemia was greater than 100 µM; in the assay on NCI/ADR-RES ovarian, 38.4 µM; in the assay with KM12 colon, 36 µM; with OVCAR-3 ovarian, 11.4 µM; with CCRF-CEM leukemia, 3.9 µM; with SF-295 CNS, 32.1 µM. Besides, the TGI was 29.4 µM with OVCAR-4 ovarian; 4.27 µM in the assay on HL-60(TB) leukemia; 29.1 µM in the assay with NCI-H23 lung; 32.6 µM with SK-MEL-2 melanoma; 27.2 µM with HT29 colon; 38 µM in the assay with SF-268 CNS. Also, the results for the TGI with HCT-116 colon, in the assay on SF-539 CNS and in the assay with UO-31 renal were 11.4 µM, 20.3 µM and 30.3 µM, respectively.

For the molecule `CCc1c2cc(OC)c(OC)cc2cc2c3cc(OC)c(OC)cc3cc[n+]12` (tested in a mixture with another compound), the TGI with K-562 leukemia is greater than 45.6 µM; in the assay on NCI/ADR-RES ovarian, greater than 61.1 µM; in the assay with KM12 colon, greater than 61.5 µM; in the assay with OVCAR-3 ovarian, greater than 89.8 µM; in the assay with CCRF-CEM leukemia it was greater than 100 µM; in the assay with SF-295 CNS, greater than 86.7 µM. In addition, the TGI in the assay with OVCAR-4 ovarian was greater than 85.6 µM; in the assay on HL-60(TB) leukemia, greater than 96.8 µM; with NCI-H23 lung it was 60.5 µM; in the assay with SK-MEL-2 melanoma, 87.1 µM; in the assay with HT29 colon, greater than 66.4 µM; in the assay with SF-268 CNS, 41.3 µM. For the same molecule, the figures for the TGI with HCT-116 colon, in the assay on SF-539 CNS and in the assay on UO-31 renal were greater than 53.8 µM, greater than 94.9 µM and greater than 71.6 µM, respectively.

In the case of `O=C1CCC(=O)N1CNc1ccc2c(c1)S(=O)(=O)c1ccccc1O2`, the TGI in the assay with K-562 leukemia, in the assay on NCI/ADR-RES ovarian, in the assay with KM12 colon, with OVCAR-3 ovarian, in the assay with CCRF-CEM leukemia and in the assay with SF-295 CNS was greater than 100 µM in each case. In addition, the TGI in the assay on OVCAR-4 ovarian, with HL-60(TB) leukemia, with NCI-H23 lung, with SK-MEL-2 melanoma, with HT29 colon and with SF-268 CNS was greater than 100 µM each time. The TGI with HCT-116 colon, in the assay on SF-539 CNS and in the assay on UO-31 renal was greater than 100 µM in each case.

For `Cc1ccc(/C=C2/N=C(N/N=C\C(O)C(O)C(O)CO)NC2=O)cc1` (stereo not drawn), the TGI with K-562 leukemia, in the assay with NCI/ADR-RES ovarian, with KM12 colon, in the assay with OVCAR-3 ovarian, in the assay on CCRF-CEM leukemia and with SF-295 CNS was greater than 100 µM throughout. Also, the TGI in the assay on OVCAR-4 ovarian, in the assay on HL-60(TB) leukemia, with SK-MEL-2 melanoma, in the assay on HT29 colon, with SF-268 CNS and in the assay on HCT-116 colon was greater than 100 µM each time. Further, the TGI in the assay with SF-539 CNS and with UO-31 renal was greater than 100 µM in each case. For the same molecule, the GI50 in the assay with CCRF-CEM leukemia is 51.5 µM.

As to `O=C(CC(O)(C(F)(F)F)C(F)(F)Cl)CC(O)(C(F)(F)F)C(F)(F)Cl` (stereo not drawn), the TGI in the assay with K-562 leukemia is greater than 10 µM; in the assay with NCI/ADR-RES ovarian, 9.5 µM; in the assay on KM12 colon, greater than 10 µM; in the assay on OVCAR-3 ovarian it was 9.14 µM; in the assay with CCRF-CEM leukemia, greater than 10 µM; in the assay on SF-295 CNS, 7.91 µM. Besides, the TGI with OVCAR-4 ovarian is greater than 10 µM; in the assay on HL-60(TB) leukemia, greater than 10 µM; in the assay on NCI-H23 lung it was 4.34 µM; in the assay with SK-MEL-2 melanoma, 4.15 µM; in the assay with HT29 colon, greater than 10 µM; in the assay with SF-268 CNS it was greater than 10 µM. Besides, the TGI with HCT-116 colon was 5.31 µM; in the assay with SF-539 CNS, greater than 10 µM; with UO-31 renal it was greater than 10 µM.

For `CC1C2CCC3C(O)C2(CC(O)C2(O)C1CC(O)C2(C)C)CC3(C)O` (stereo not drawn), the TGI with K-562 leukemia, in the assay with NCI/ADR-RES ovarian, in the assay on KM12 colon, in the assay on CCRF-CEM leukemia, with SF-295 CNS and with OVCAR-4 ovarian was greater than 100 µM in each case. Moreover, the TGI in the assay on HL-60(TB) leukemia, with NCI-H23 lung, in the assay with SK-MEL-2 melanoma, with HT29 colon, with SF-268 CNS and in the assay on HCT-116 colon was greater than 100 µM in each case. For the same molecule, the TGI in the assay with SF-539 CNS and in the assay with UO-31 renal was greater than 100 µM each time.

Consider `c1ccc2c(c1)nc1n2CSCC1`, for which the TGI with K-562 leukemia, in the assay with NCI/ADR-RES ovarian, in the assay with KM12 colon, in the assay on OVCAR-3 ovarian, in the assay on CCRF-CEM leukemia and in the assay with SF-295 CNS was greater than 100 µM throughout. Also, the TGI in the assay on OVCAR-4 ovarian, in the assay on HL-60(TB) leukemia, with NCI-H23 lung, in the assay with SK-MEL-2 melanoma, in the assay with HT29 colon and in the assay with SF-268 CNS was greater than 100 µM each time. Moreover, the TGI with HCT-116 colon, in the assay on SF-539 CNS and with UO-31 renal was greater than 100 µM throughout.

Take `O=C1c2c(Br)sc(Br)c2[C@@H](Cl)[C@H]1Cl`: the TGI in the assay on K-562 leukemia was greater than 100 µM; in the assay on NCI/ADR-RES ovarian it was greater than 100 µM; in the assay with KM12 colon, 65.4 µM; in the assay with OVCAR-3 ovarian it was 30 µM; in the assay on CCRF-CEM leukemia, 35.9 µM; in the assay on SF-295 CNS it was 40.7 µM. Further, the TGI in the assay with OVCAR-4 ovarian was 37.4 µM; with HL-60(TB) leukemia, 20.5 µM; with NCI-H23 lung, 94 µM; in the assay with SK-MEL-2 melanoma it was 37.7 µM; in the assay with HT29 colon, greater than 100 µM; with SF-268 CNS, 39.8 µM. Besides, the TGI was found to be 48.8 µM with HCT-116 colon, 27.1 µM in the assay on SF-539 CNS and 40.4 µM in the assay on UO-31 renal.

`Cn1c(=O)c2sc3c4sc5c(=O)n(C)c6ccccc6c5c4sc3c2c2ccccc21`: the TGI with K-562 leukemia, in the assay with NCI/ADR-RES ovarian, in the assay on KM12 colon, in the assay with OVCAR-3 ovarian, in the assay on CCRF-CEM leukemia and in the assay on OVCAR-4 ovarian was greater than 100 µM in each case. The TGI with HL-60(TB) leukemia, with NCI-H23 lung, with SK-MEL-2 melanoma, in the assay with HT29 colon, in the assay on SF-268 CNS and in the assay on HCT-116 colon was greater than 100 µM throughout. The TGI in the assay on SF-539 CNS and with UO-31 renal was greater than 100 µM each time.
